Reference: PMC10054091, “Maleic Acid as a Co-Former for Pharmaceutically Active GABA Derivatives: Mechanochemistry or Solvent Crystallization?” (Materials, 2023)
≈ marks a conversion by molar mass, not a printed value. Where “and” joins values, the source holds several entries; their conditions need not be identical. Equal values may be shown once.

Legend:
[1] = Solubility in aqueous medium by 1H-NMR of saturated solutions
Method: Solubilities: Determination of substance solubilities were performed through ^1H-NMR spectroscopy with a Bruker Avance III NMR-spectrometer at 600 MHz. Saturated solutions of crystalline material were placed in an incubator at 25 °C and moved for 60 min^−1. Three samples of each investigated substance were left for three days under these conditions. Subsequently, 50 μL of the solution was removed from the samples and added to 450 μL of D2O for ^1H-NMR measurements. Solubility was determined by the ratio of integrated solvent to substance peak. Solubility values are presented as averages over the recorded samples with the error margin according to their standard deviation. […]
7 Solubility determination details
Solubilities were determined with 1H-NMR. Three samples for each single compound and three samples for each received maleate gained through grinding or solvent crystalliz ation were prepared. For this, dispersions of the investigated compounds in water were prepared in such a way that no complete dissolution would occur after three days at 25 °C in an incubator shaking with 60 min -1. Subsequently, 50 μL of liquid were removed from the samples and added to 450 μL of D 2O prepared in an NMR-tube. 1H-NMR measurements were conducted on a Bruker Avance III NMR-spectrometer at 600 MHz. Solubilities were determined by phase and baseline correction of the received spectrum in MestReNova software x64 14.2.0, application of D 2O shift on the solvent peak from the MestReNova […]
database. Integration of a chosen signal in the received spectrum and furt her integration of the solvent signal. The latter signal was always integrated in the borders of 5.000 – 4.600 ppm, the product signals were integrated in as narrow a range as possible ( Table S7). Trace water in D 2O w as considered negligible. Solubilities were calculated by the following […]
Where S p is the solubility of the API in gL -1, M p is the molar mass of the targeted API in g mol-1, I w is the value of the water integral received, n is an adjustment factor necessary if […]
= 2 because solvent is water), M w is the molar mass of water in gmol -1 and ρw is the density of water at 25 °C in gL-1. Error was calculated as the standard deviation of the three recorded samples according to Equation 2.
Here V is the standard deviation, x is the average of the three solubility values, x̅ each single solubility value and n the number of samples, three.

[2] = cited from earlier work
[3] = given enough time
Method: PXRD: Powder patterns were recorded on a Rigaku Miniflex 300 powder diffractometer with a Cu-Source and Kα radiation at […] in Θ/2Θ-geometry. Measurements were conducted at ambient temperature in a range of 5–50° 2Θ.

[4] = Table S7, water, 25 °C, three days, three samples, _sol = solvent crystallization, _mill = grinding
[5] = API solubility, aqueous medium, 25 °C, saturated solutions after three days, 1H-NMR, average of three samples, _M = mechanochemically prepared sample
[6] = aqueous medium, 25 °C, three days
[7] = product obtained by grinding (mechanochemical), water, 25 °C, three days
[8] = product obtained from solution (solvent product), water, 25 °C, three days

NCC(CC(=O)O)c1ccccc1 (stereo not drawn) [compound 4, Phenibut, reference compound]
Sp ± V (solubility of the API ± standard deviation) [1, 4]: 15 ± 0.3 gL-1
Increase of API solubility in its maleate compared to the pure form ([1]; aqueous medium, 25 °C): eightfold
solubility thermodynamic at 3 days ([1]; water): 15 mg/mL (≈ 83.7 mM)
pKa of the acid function [2]: around 4

Gabapentin maleate hydrate [2-MA•H2O]
Solubility [1, 5]: 241 ± 8 gL^−1 and 241 gL^−1
Sp ± V (solubility of the API ± standard deviation) [1, 4]: 241 ± 8 gL-1

NCC(CC(=O)O)c1ccc(Cl)cc1 (stereo not drawn) [compound 5, Baclofen, reference compound]
Increase of API solubility in its maleate compared to the pure form [1]: twofold
Sp ± V (solubility of the API ± standard deviation) [1]: 3 ± 0.1 gL-1
solubility thermodynamic at 3 days ([1]; water): 3 mg/mL (≈ 14 mM)
pKa of the acid function [2]: around 4

CC(C)CC(CN)CC(=O)O.O=C(O)C=CC(=O)O (racemic) [(rac)-3-MA-I, (rac)-Pregabalin maleate I]
Phase stability of the solid form over time [3]: converts to (rac)-3-MA-II

CC(C)C[C@H](CN)CC(=O)O [compound 3, Pregabalin, reference compound]
Increase of API solubility in its maleate compared to the pure form ([1]; aqueous medium, 25 °C, listed as Pregabalin): up to twentyfold
pKa of the acid function [2]: around 4

CC(C)CC(CN)CC(=O)O (racemic) [(rac)-3•H2O, (rac)-Pregabalin hydrate, reference compound]
Sp ± V (solubility of the API ± standard deviation) [1, 4]: 33 ± 1 gL-1
Increase of API solubility in its maleate compared to the pure form ([1]; aqueous medium, 25 °C): 23 fold
solubility thermodynamic at 3 days ([1]; water): 33 mg/mL

CC(C)C[C@H](CN)CC(=O)O [(S)-3, (S)-Pregabalin, reference compound]
Sp ± V (solubility of the API ± standard deviation) [1, 4]: 41 ± 1 gL-1
Increase of API solubility in its maleate compared to the pure form ([1]; aqueous medium, 25 °C, listed as (S)-Pregabalin): 21 fold
solubility thermodynamic at 3 days ([1]; water): 41 mg/mL (≈ 257 mM)

NCC1(CC(=O)O)CCCCC1 [compound 2, Gabapentin, reference compound]
Sp ± V (solubility of the API ± standard deviation) [1, 4]: 174 ± 7 gL-1
solubility thermodynamic at 3 days ([1]; water): 174 mg/mL (≈ 1020 mM)
pKa of the acid function [2]: around 4

NCC(CC(=O)O)c1ccc(Cl)cc1.O=C(O)C=CC(=O)O (stereo not drawn) [5-MA, Baclofen maleate]
Solubility [1, 5]: 6 gL^−1
Sp ± V (solubility of the API ± standard deviation) ([1]; Table S7, water, 25 °C, three days, three samples, _sol = solvent crystallization, _mill = grinding, listed as 5-MA_mill): 6 ± 0.6 gL-1
Sp ± V (solubility of the API ± standard deviation) ([1]; Table S7, water, 25 °C, three days, three samples, _sol = solvent crystallization, _mill = grinding, listed as 5-MA_sol): 6 ± 0.3 gL-1
Change of solubility of the maleate versus the pure API (in words) [1, 6]: uniform increases in solubility

O=C(O)/C=C\C(=O)O [MA, Maleic acid]
Solubility [1]: 687 ± 44 gL^−1
Sp ± V (solubility of the API ± standard deviation) [1]: 687 ± 44 gL-1
solubility thermodynamic at 3 days ([1]; water): 687 mg/mL (≈ 5920 mM)
pKa1 [2]: 1.74
pKa2 [2]: 5.81

NCC(CC(=O)O)c1ccccc1.O=C(O)C=CC(=O)O (stereo not drawn) [4-MA, Phenibut maleate]
Solubility [1, 5]: 124 gL^−1
Solubility ([1]; API solubility, aqueous medium, 25 °C, saturated solutions after three days, 1H-NMR, average of three samples, _M = mechanochemically prepared sample, listed as 4-MA_M): 128 gL^−1
Sp ± V (solubility of the API ± standard deviation) ([1]; Table S7, water, 25 °C, three days, three samples, _sol = solvent crystallization, _mill = grinding, listed as 4-MA_mill): 128 ± 8 gL-1
Sp ± V (solubility of the API ± standard deviation) ([1]; Table S7, water, 25 °C, three days, three samples, _sol = solvent crystallization, _mill = grinding, listed as 4-MA_sol): 124 ± 4 gL-1
Change of solubility of the maleate versus the pure API (in words) [1, 6]: uniform increases in solubility

NCC1(CC(=O)O)CCCCC1.O=C(O)C=CC(=O)O [2-MA, Gabapentin maleate]
Solubility [1, 5]: 218 ± 8 gL^−1
Solubility ([1]; API solubility, aqueous medium, 25 °C, saturated solutions after three days, 1H-NMR, average of three samples, _M = mechanochemically prepared sample, listed as 2-MA_M): 218 gL^−1
Sp ± V (solubility of the API ± standard deviation) [1, 4]: 218 ± 8 gL-1

CC(C)CC(CN)CC(=O)O.O=C(O)C=CC(=O)O (racemic) [(rac)-3-MA, (rac)-Pregabalin maleate]
Solubility [1, 5]: 719 gL^−1
Solubility ([1]; API solubility, aqueous medium, 25 °C, saturated solutions after three days, 1H-NMR, average of three samples, _M = mechanochemically prepared sample, listed as (rac)-3-MA_M): 556 gL^−1
Sp ± V (solubility of the API ± standard deviation) ([1]; Table S7, water, 25 °C, three days, three samples, _sol = solvent crystallization, _mill = grinding, listed as (rac)-3-MA_mill): 559 ± 19 gL-1
Sp ± V (solubility of the API ± standard deviation) ([1]; Table S7, water, 25 °C, three days, three samples, _sol = solvent crystallization, _mill = grinding, listed as (rac)-3-MA_sol): 719 ± 10 gL-1
Solubility [1, 7]: 556 ± 19 gL^−1
Solubility [1, 8]: 719 ± 10 gL^−1

(S)-Pregabalin maleate hydrate [(S)-3-MA•H2O]
Solubility [1, 5]: 977 gL^−1
Solubility ([1]; API solubility, aqueous medium, 25 °C, saturated solutions after three days, 1H-NMR, average of three samples, _M = mechanochemically prepared sample, listed as (S)-3-MA•H2O_M): 809 gL^−1
Sp ± V (solubility of the API ± standard deviation) ([1]; Table S7, water, 25 °C, three days, three samples, _sol = solvent crystallization, _mill = grinding, listed as (S)-3-MA• H2O_mill): 809 ± 8 gL-1
Sp ± V (solubility of the API ± standard deviation) ([1]; Table S7, water, 25 °C, three days, three samples, _sol = solvent crystallization, _mill = grinding, listed as (S)-3-MA• H2O_sol): 977 ± 79 gL-1
Solubility [1, 7]: 809 ± 8 gL^−1
Solubility [1, 8]: 977 ± 79 gL^−1
